Target: T1, mTOR (Homo sapiens, UniProt P42345)
T1 construct: purchased Invitrogen PR8683A
Test: mTOR HTR-FRET assay
Assay type: biochemical
Settings: read-out: Act. Level (IC50 in mTor HTR-FRET assay)
How it was run: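 Test compounds, taken from 10 mM DMSO stocks and diluted, were mixed with mTOR enzyme (0.200 μg/mL) in Tris buffer pH 7.4 with 100 mM NaCl, 0.1% Tween-20 and 1 mM DTT. ATP/substrate addition initiated the reaction, alongside compound-free controls.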

T1 sequence (P42345 1360-2549 limits assumed): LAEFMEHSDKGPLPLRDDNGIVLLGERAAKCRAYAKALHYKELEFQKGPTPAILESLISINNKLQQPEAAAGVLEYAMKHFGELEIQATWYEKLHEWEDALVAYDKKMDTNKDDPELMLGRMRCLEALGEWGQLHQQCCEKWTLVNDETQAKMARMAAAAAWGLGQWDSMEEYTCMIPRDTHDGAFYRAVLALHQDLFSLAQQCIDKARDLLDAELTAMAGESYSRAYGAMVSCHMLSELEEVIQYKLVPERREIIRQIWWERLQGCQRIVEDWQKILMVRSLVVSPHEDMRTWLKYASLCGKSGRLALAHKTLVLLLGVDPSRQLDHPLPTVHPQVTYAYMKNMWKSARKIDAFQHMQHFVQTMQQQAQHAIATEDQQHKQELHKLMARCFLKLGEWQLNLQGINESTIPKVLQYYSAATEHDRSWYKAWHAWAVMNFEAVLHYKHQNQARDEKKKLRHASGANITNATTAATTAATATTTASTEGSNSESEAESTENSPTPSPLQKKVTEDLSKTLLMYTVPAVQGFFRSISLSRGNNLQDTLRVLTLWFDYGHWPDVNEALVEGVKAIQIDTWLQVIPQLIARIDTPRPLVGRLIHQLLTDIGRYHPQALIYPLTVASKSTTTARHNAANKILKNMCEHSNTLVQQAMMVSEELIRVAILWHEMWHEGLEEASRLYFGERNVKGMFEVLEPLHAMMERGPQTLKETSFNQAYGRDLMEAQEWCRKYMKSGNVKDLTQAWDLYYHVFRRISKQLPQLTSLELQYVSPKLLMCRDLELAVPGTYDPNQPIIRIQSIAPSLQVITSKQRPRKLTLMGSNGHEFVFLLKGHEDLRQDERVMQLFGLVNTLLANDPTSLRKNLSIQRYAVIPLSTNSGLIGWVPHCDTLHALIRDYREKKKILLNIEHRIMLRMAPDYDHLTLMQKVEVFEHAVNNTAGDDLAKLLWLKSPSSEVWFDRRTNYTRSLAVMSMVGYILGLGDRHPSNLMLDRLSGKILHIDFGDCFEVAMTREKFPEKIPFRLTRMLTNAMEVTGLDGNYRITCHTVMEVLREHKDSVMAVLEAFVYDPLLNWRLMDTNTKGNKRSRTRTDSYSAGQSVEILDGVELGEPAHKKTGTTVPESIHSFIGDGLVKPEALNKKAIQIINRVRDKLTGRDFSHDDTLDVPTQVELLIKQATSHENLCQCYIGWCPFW

SMILES | IC50 [nM]
O=C1CNc2ncc(-c3ccncc3)nc2N1CCC1CCOCC1 [Example 195, 7-(pyridin-4-yl)-1-(2-(tetrahydro-2H-pyran-4-yl)ethyl)-3,4-dihydropyrazino[2,3-b]pyrazin-2(1H)-one] | 1000 to 10000
Nc1ccc(-c2cnc3c(n2)N(CCC2CCOCC2)C(=O)CN3)cn1 [Example 196, 7-(6-aminopyridin-3-yl)-1-(2-(tetrahydro-2H-pyran-4-yl)ethyl)-3,4-dihydropyrazino[2,3-b]pyrazin-2(1H)-one] | 0.005 to 250
Cc1nc(-c2nnc[nH]2)ccc1-c1cnc2c(n1)N(C)C(=O)CN2 [Example 197, 1-methyl-7-(2-methyl-6-(4H-1,2,4-triazol-3-yl)pyridin-3-yl)-3,4-dihydropyrazino[2,3-b]pyrazin-2(1H)-one] | 0.005 to 250
CO[C@H]1CC[C@H](N2C(=O)CNc3ncc(-c4ccc(C(C)(C)O)[n+]([O-])c4)nc32)CC1 [Example 198, 2-(2-hydroxypropan-2-yl)-5-(8-(trans-4-methoxycyclohexyl)-7-oxo-5,6,7,8-tetrahydropyrazino[2,3-b]pyrazin-2-yl)pyridine 1-oxide] | 1000 to 10000
Cc1cc(C(N)=O)ncc1-c1cnc2c(n1)N(CC1CCOCC1)C(=O)CN2 [Example 199, 4-methyl-5-(7-oxo-8-((tetrahydro-2H-pyran-4-yl)methyl)-5,6,7,8-tetrahydropyrazino[2,3-b]pyrazin-2-yl)picolinamide] | 1000 to 10000
CO[C@H]1CC[C@@H](CN2C(=O)CNc3ncc(-c4cnc(C(N)=O)cc4C)nc32)CC1 [Example 200, 5-(8-((cis-4-methoxycyclohexyl)methyl)-7-oxo-5,6,7,8-tetrahydropyrazino[2,3-b]pyrazin-2-yl)-4-methylpicolinamide] | 1000 to 10000
O=C1CNc2ncc(-c3cn[nH]c3)nc2N1CCC1CCOCC1 [Example 201, 7-(1H-pyrazol-4-yl)-1-(2-(tetrahydro-2H-pyran-4-yl)ethyl)-3,4-dihydropyrazino[2,3-b]pyrazin-2(1H)-one] | 1000 to 10000
CO[C@H]1CC[C@H](N2C(=O)CNc3ncc(-c4cnc(-c5nc[nH]n5)cc4C)nc32)CC1 [Example 202, 1-(trans-4-methoxycyclohexyl)-7-(4-methyl-6-(1H-1,2,4-triazol-3-yl)pyridin-3-yl)-3,4-dihydropyrazino[2,3-b]pyrazin-2(1H)-one] | 0.005 to 250
Cc1nc(-c2nnc[nH]2)ccc1-c1cnc2c(n1)N(Cc1cccc(C#N)c1)C(=O)CN2 [Example 203, 3-((7-(2-methyl-6-(4H-1,2,4-triazol-3-yl)pyridin-3-yl)-2-oxo-3,4-dihydropyrazino[2,3-b]pyrazin-1(2H)-yl)methyl)benzonitrile] | 0.005 to 250
CO[C@H]1CC[C@H](CN2C(=O)CNc3ncc(-c4cnc(-c5nc[nH]n5)cc4C)nc32)CC1 [Example 204, 1-((trans-4-methoxycyclohexyl)methyl)-7-(4-methyl-6-(1H-1,2,4-triazol-3-yl)pyridin-3-yl)-3,4-dihydropyrazino[2,3-b]pyrazin-2(1H)-one] | 0.005 to 250
NC(=O)c1cccc(-c2cnc3c(n2)N(CCC2CCOCC2)C(=O)CN3)c1 [Example 205, 3-(7-oxo-8-(2-(tetrahydro-2H-pyran-4-yl)ethyl)-5,6,7,8-tetrahydropyrazino[2,3-b]pyrazin-2-yl)benzamide] | 1000 to 10000
CO[C@H]1CC[C@H](CN2C(=O)CNc3ncc(-c4cnc(C(N)=O)cc4C)nc32)CC1 [Example 206, 5-(8-((trans-4-methoxycyclohexyl)methyl)-7-oxo-5,6,7,8-tetrahydropyrazino[2,3-b]pyrazin-2-yl)-4-methylpicolinamide] | 1000 to 10000
CC(C)(O)c1ccc(-c2cnc3c(n2)N(Cc2cccc(C#N)c2)C(=O)CN3)cn1 [Example 207, 3-((7-(6-(2-hydroxypropan-2-yl)pyridin-3-yl)-2-oxo-3,4-dihydropyrazino[2,3-b]pyrazin-1(2H)-yl)methyl)benzonitrile] | 0.005 to 250
CO[C@@H]1CC[C@@H](N2C(=O)CNc3ncc(-c4ccc(C(C)(C)O)nc4)nc32)C1 [Example 208, 7-(6-(2-hydroxypropan-2-yl)pyridin-3-yl)-1-((1R,3R)-3-methoxycyclopentyl)-3,4-dihydropyrazino[2,3-b]pyrazin-2(1H)-one] | 0.005 to 250
CO[C@@H]1CC[C@H](N2C(=O)CNc3ncc(-c4ccc(C(C)(C)O)nc4)nc32)C1 [Example 209, 7-(6-(2-hydroxypropan-2-yl)pyridin-3-yl)-1-((1S,3R)-3-methoxycyclopentyl)-3,4-dihydropyrazino[2,3-b]pyrazin-2(1H)-one] | 0.005 to 250
CO[C@H]1CC[C@H](N2C(=O)CNc3ncc(-c4ccc(C(C)(C)O)nc4)nc32)C1 [Example 210, 7-(6-(2-hydroxypropan-2-yl)pyridin-3-yl)-1-((1S,3S)-3-methoxycyclopentyl)-3,4-dihydropyrazino[2,3-b]pyrazin-2(1H)-one] | 0.005 to 250
CO[C@H]1CC[C@@H](N2C(=O)CNc3ncc(-c4ccc(C(C)(C)O)nc4)nc32)C1 [Example 211, 7-(6-(2-hydroxypropan-2-yl)pyridin-3-yl)-1-((1R,3S)-3-methoxycyclopentyl)-3,4-dihydropyrazino[2,3-b]pyrazin-2(1H)-one] | 0.005 to 250

SMILES | IC50 [nM]
O=C1CNc2ncc(-c3ccc4cn[nH]c4c3)nc2N1CCC1CCOCC1 [Example 212, 7-(1H-indazol-6-yl)-1-(2-(tetrahydro-2H-pyran-4-yl)ethyl)-3,4-dihydropyrazino[2,3-b]pyrazin-2(1H)-one] | 0.005 to 250
CC(C)(O)c1ccc(-c2cnc3c(n2)N(CCN2CCOCC2)C(=O)CN3)cn1 [Example 216, 7-(6-(2-hydroxypropan-2-yl)pyridin-3-yl)-1-(2-morpholinoethyl)-3,4-dihydropyrazino[2,3-b]pyrazin-2(1H)-one] | 0.005 to 250
O=C1CNc2ncc(-c3cnc4nc[nH]c4c3)nc2N1CCC1CCOCC1 [Example 218, 7-(1H-imidazo[4,5-b]pyridin-6-yl)-1-(2-(tetrahydro-2H-pyran-4-yl)ethyl)-3,4-dihydropyrazino[2,3-b]pyrazin-2(1H)-one] | 1000 to 10000
NC(=O)c1ccc(-c2cnc3c(n2)N(CCC2CCOCC2)C(=O)CN3)cc1 [Example 222, 4-(7-oxo-8-(2-(tetrahydro-2H-pyran-4-yl)ethyl)-5,6,7,8-tetrahydropyrazino[2,3-b]pyrazin-2-yl)benzamide] | 0.005 to 250
O=C1CNc2ncc(-c3ccc4[nH]ncc4c3)nc2N1CCC1CCOCC1 [Example 223, 7-(1H-indazol-5-yl)-1-(2-(tetrahydro-2H-pyran-4-yl)ethyl)-3,4-dihydropyrazino[2,3-b]pyrazin-2(1H)-one] | 500 to 1000
O=C1CNc2ncc(-c3cnc4[nH]ccc4c3)nc2N1CCC1CCOCC1 [Example 224, 7-(1H-pyrrolo[2,3-b]pyridin-5-yl)-1-(2-(tetrahydro-2H-pyran-4-yl)ethyl)-3,4-dihydropyrazino[2,3-b]pyrazin-2(1H)-one] | 0.005 to 250
CO[C@@H]1CC[C@H](N2C(=O)CNc3ncc(-c4ccc(-c5nnc[nH]5)nc4C)nc32)C1 [Example 226, 1-((1S,3R)-3-methoxycyclopentyl)-7-(2-methyl-6-(4H-1,2,4-triazol-3-yl)pyridin-3-yl)-3,4-dihydropyrazino[2,3-b]pyrazin-2(1H)-one] | 0.005 to 250
CO[C@@H]1CC[C@@H](N2C(=O)CNc3ncc(-c4ccc(-c5nnc[nH]5)nc4C)nc32)C1 [Example 227, 1-((1R,3R)-3-methoxycyclopentyl)-7-(2-methyl-6-(4H-1,2,4-triazol-3-yl)pyridin-3-yl)-3,4-dihydropyrazino[2,3-b]pyrazin-2(1H)-one] | 0.005 to 250
CO[C@H]1CC[C@@H](N2C(=O)CNc3ncc(-c4ccc(-c5nnc[nH]5)nc4C)nc32)C1 [Example 228, 1-((1R,3S)-3-methoxycyclopentyl)-7-(2-methyl-6-(4H-1,2,4-triazol-3-yl)pyridin-3-yl)-3,4-dihydropyrazino[2,3-b]pyrazin-2(1H)-one] | 0.005 to 250
CO[C@H]1CC[C@H](N2C(=O)CNc3ncc(-c4ccc(-c5nnc[nH]5)nc4C)nc32)C1 [Example 229, 1-((1S,3S)-3-methoxycyclopentyl)-7-(2-methyl-6-(4H-1,2,4-triazol-3-yl)pyridin-3-yl)-3,4-dihydropyrazino[2,3-b]pyrazin-2(1H)-one] | 0.005 to 250
O=C1CNc2ncc(-c3ccc4cc[nH]c4c3)nc2N1CCC1CCOCC1 [Example 232, 7-(1H-indol-6-yl)-1-(2-(tetrahydro-2H-pyran-4-yl)ethyl)-3,4-dihydropyrazino[2,3-b]pyrazin-2(1H)-one] | 250 to 500
CO[C@H]1CC[C@H](N2C(=O)CNc3ncc(-c4ccc(C(C)(C)O)cc4)nc32)CC1 [Example 233, 7-(4-(2-hydroxypropan-2-yl)phenyl)-1-(trans-4-methoxycyclohexyl)-3,4-dihydropyrazino[2,3-b]pyrazin-2(1H)-one] | 0.005 to 250
CNc1nc2c(C)cc(-c3cnc4c(n3)N(CCOC)C(=O)CN4)cc2[nH]1 [Example 237, 1-(2-methoxyethyl)-7-(4-methyl-2-(methylamino)-1H-benzo[d]imidazol-6-yl)-3,4-dihydropyrazino[2,3-b]pyrazin-2(1H)-one] | 0.005 to 250
Cc1cc(-c2cnc3c(n2)N(CC2CCOCC2)C(=O)CN3)cc2[nH]c(=O)[nH]c12 [Example 238, 7-(7-methyl-2-oxo-2,3-dihydro-1H-benzo[d]imidazol-5-yl)-1-((tetrahydro-2H-pyran-4-yl)methyl)-3,4-dihydropyrazino[2,3-b]pyrazin-2(1H)-one] | 500 to 1000
Cc1cc(-c2nnc[nH]2)ccc1-c1cnc2c(n1)NC(=O)CN2 [Example 239, 7-(2-methyl-4-(4H-1,2,4-triazol-3-yl)phenyl)-3,4-dihydropyrazino[2,3-b]pyrazin-2(1H)-one] | 0.005 to 250
COCCN1C(=O)CNc2ncc(-c3cnc(-c4nc[nH]n4)cc3C)nc21 [Example 240, 1-(2-methoxyethyl)-7-(4-methyl-6-(1H-1,2,4-triazol-3-yl)pyridin-3-yl)-3,4-dihydropyrazino[2,3-b]pyrazin-2(1H)-one] | 0.005 to 250
